Data reported in publication PMC11320574 (ACS Infectious Diseases, 2024).
Positions of bridges follow the written chain, without caps; N, C: chain ends. Residues, ends and D or L forms follow the SMILES beside them.

Key:
[1] = Resistance to breakdown by serum proteases; format: in vitro ADME; details: human, 25% (v/v) human serum in PBS
P. falciparum 3D7 = assay: In vitro growth inhibition of P. falciparum 3D7; format: cell-based, Plasmodium falciparum; details: HC10 of uninfected RBCs relative to Pf IC50 with 5 mg/mL Albumax II supplement

CC[C@H](C)[C@@H]1NC(=O)[C@H](CCCCN)NC(=O)[C@H](CCCCN)NC(=O)[C@H](Cc2ccc(O)cc2)NC(=O)[C@H](CC(C)C)NC(=O)[C@@H]2CCCN2C(=O)[C@H](C)NC(=O)CNC(=O)CNC(=O)[C@H](CO)NC(=O)CNC(=O)CNC(=O)[C@H](CO)NC(=O)[C@H](CCCCN)NC(=O)[C@H](CC(C)C)NC(=O)[C@H](CC(C)C)NC(=O)[C@H](CCCCN)NC(=O)[C@H](CCCCN)NC(=O)[C@H]([C@@H](C)CC)NC(=O)[C@H]([C@@H](C)CC)NC(=O)[C@H](CCCCN)NC(=O)[C@H](CCCCN)NC(=O)[C@H](Cc2ccc(O)cc2)NC(=O)[C@H](CC(C)C)NC(=O)[C@@H]2CCCN2C(=O)CNC(=O)CNC(=O)[C@@H](NC(=O)CN)CSSC[C@@H](C(N)=O)NC(=O)[C@H](CC(C)C)NC(=O)[C@H](CCCCN)NC(=O)[C@H](CCCCN)NC(=O)[C@H]([C@@H](C)CC)NC1=O [Peptide 10] (H-GCGGPLYKKIIKKLLKSGGSGGAPLYKKIIKKLC-NH2; disulfide 2-34; N-terminus assumed)
remaining at 24 h, 50 μM [1]: 0% | Activity-hemolysis index RBC HC10/ Pf IC50 (P. falciparum 3D7): 6.5 ± 1.2
